Test results reported in US20050267145A1, “Treatment for lung cancer” (priority 2004, published 2005).

Key:
[1] = tested on: A23187-Stimulated LTB4 in Rat Lung; test: A23187-stimulated LTB4 in rat lung in situ (MDI dosing); details: 20 μg by single MDI activation into excised rat lung, A23187 challenge, LTB4 by RIA
Protocol: For the evaluation of test compounds using metered dose inhalers, dry compounds were dissolved in ethanol to a concentration of 2.33 mg/mL. 2.54 mL of this solution was added to a 20 g glass metered dose inhaler (MDI) vial and fitted with a continuous valve. The vials were cooled on dry ice, filled with 18 g of HFA 134a (DYMEL, E. I. Du Pont de Nemours and Co., Corpus Christi, Tex.), returned to dry ice, and the continuous valve was replaced with an intermittent valve that delivered 25 μL per activation. A single activation of a vial prepared as described delivered 20 μg of compound per activation. For experiments requiring different mass of compound per activation, the initial ethanol solution concentration was adjusted as necessary.
Male Sprague-Dawley rats (Charles River Laboratories, Inc. Wilmington, Mass.) weighing 250-300 grams were anesthetized with methoxyflurane in a closed container, the peritoneal cavity was exposed, and the animals were exsanguinated. The pleural cavity was exposed and the lung was removed with both the trachea and heart attached. The trachea was fitted with a cannula, secured with a ligature, and the distal end of the cannula was extended through a small hole in a #6 rubber stopper allowing for a tight seal. The lung, secured to the cannula and stopper, was then suspended in a 125 mL side arm Erlenmeyer flask filled to 100 mL with PBS warmed to 37° C. As such, access to the airways of the lung could be achieved through the cannula extending through the stopper to the outside of the flask. The flask was then placed in a 37° C. water bath.
An MDI, prepared as described above, containing test compound was fired with a single activation through the cannula and into the airways of the lung. The MDI were made to deliver 20 μg/shot, thus providing a dose of from about 0.06 mg/kg to about 0.08 mg/kg. Control lungs were similarly treated with an MDI containing propellant and co-solvent. The lungs were then incubated for 5 minutes at 37° C. Following this preincubation, 25 μL of 10 mM A23187 (Sigma Chemical Co., St. Louis, Mo.) was fired into the airways and the lung was incubated for an additional 10 minutes. Control lungs again were treated with propellant and co-solvent, only.
The lungs were then lavaged with 5 mL of ice cold PBS containing 1 mM EDTA. The recovered lavage fluid was centrifuged for 10 minutes at 150×g to sediment cells and LTB4 was quantified in the supernatant by specific RIA. The sensitivity of this assay was 155 pg/mL.

[2] = tested on: pulmonary adenomas; test: Benzo(a)pyrene-induced pulmonary adenomas in A/J mice; assay type: in vivo, mouse; details: sixteen weeks; for Adenoma counts, groups 1H and 2H compared: high dose 425 μg/kg by inhalation
[3] = target: T1, 5-lipoxygenase (Mus musculus, UniProt P48999); test: Sustained 5-lipoxygenase inhibition in vitro (LTC4 by RIA, mouse peritoneal macrophages, washout); assay type: cell-based; details: 10 μM for 30 minutes, washed, six hours washout, zymosan 50 μg/mL challenge; for inhibition at 10 µM: read-out: Sustained Inhibition, 10 μM Initial
T1 construct: Resident mouse peritoneal macrophages were obtained from male CD-1 mice; endogenous in cells; host or cells: resident peritoneal macrophages from male CD-1 mice (Charles River Laboratories)
T1 sequence (P48999 1-674): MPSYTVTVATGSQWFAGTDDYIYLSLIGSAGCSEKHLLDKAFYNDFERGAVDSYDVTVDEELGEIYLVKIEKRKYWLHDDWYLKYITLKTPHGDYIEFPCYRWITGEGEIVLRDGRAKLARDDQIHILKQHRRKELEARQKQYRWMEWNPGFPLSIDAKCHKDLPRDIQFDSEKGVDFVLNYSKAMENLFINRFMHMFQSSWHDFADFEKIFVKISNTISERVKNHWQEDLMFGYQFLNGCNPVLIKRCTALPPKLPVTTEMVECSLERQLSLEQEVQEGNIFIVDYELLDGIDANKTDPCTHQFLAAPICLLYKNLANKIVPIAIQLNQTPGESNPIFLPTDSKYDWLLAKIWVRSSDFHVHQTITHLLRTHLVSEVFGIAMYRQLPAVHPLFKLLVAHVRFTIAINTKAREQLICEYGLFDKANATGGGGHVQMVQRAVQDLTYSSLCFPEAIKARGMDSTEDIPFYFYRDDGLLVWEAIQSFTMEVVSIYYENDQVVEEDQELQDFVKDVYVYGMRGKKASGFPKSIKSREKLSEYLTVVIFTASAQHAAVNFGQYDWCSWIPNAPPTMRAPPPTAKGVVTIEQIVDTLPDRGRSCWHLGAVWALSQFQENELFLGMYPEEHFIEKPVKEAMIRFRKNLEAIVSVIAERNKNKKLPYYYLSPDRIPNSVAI
Protocol: LTC4 was purchased from Biomol International, L.P., Plymouth Meeting, Pa.; ^3H-LTC4 was purchased from PerkinElmer Life and Analytical Sciences, Inc., Boston, Mass.; and antibody to LTC4 was purchased from Advanced Magnetics, Inc., Cambridge, Mass.
The retrieved lavage medium was added to tissue culture dishes and incubated for two hours at 37° C. in a humidified atmosphere containing 5% CO2. Following macrophage enrichment by adherence, the culture medium was removed and the resultant cell layer was washed twice with PBS, the medium (with heparin) was replaced with 1 mL of medium (without heparin), and the cells were then incubated overnight as described above. The following morning the medium was removed and the macrophages were washed twice with 2 mL PBS. One mL of fresh medium, devoid of serum, was then added.
Test compounds were added to the macrophage cultures to achieve a final concentration of 10 μM. The final DMSO concentration was 0.1% in for each test compound. Blank and control cultures were treated with DMSO only. After 30 minutes incubation, the macrophages were washed twice with 2 mL PBS. […] This treatment described in (b) was to allow for a washout period for the test compound.

[4] = tested on: lung tumors; details: mice, administered orally; cited from earlier work
[5] = tested on: MC-26 murine colon carcinoma cells; test: Lung metastatic mouse model (MC-26 colon carcinoma cells i.v.), lung weight; assay type: in vivo; details: statement on Table 3
Protocol: A lung metastatic mouse model was used to determine the anti-tumor activity of a 5-LO inhibitor (zileuton) in combination with an IRM. 12-18 week old CDF1 female mice (Charles River Laboratories, Inc.) weighing 20-22 grams were injected in the tail intravenously with 5×10^5 MC-26 murine colon carcinoma cells. IRM2 was prepared in a 0.03M citrate buffered saline solution, pH 4.0. Zileuton was prepared in a 10% ethanol in water solution. At four hours and 24 hours after tumor challenge, mice were injected intra-peritoneally with zileuton and IRM2 as indicated in Table 3. One group of mice (Vehicle) was untreated. Fourteen days after tumor challenge, mice were sacrificed and lungs were removed and weighed.

| SMILES | inhibition at 10 µM [3] | Inhibition, 20 μg in situ [1] | other results |
| --- | --- | --- | --- |
| CC(c1cc2ccccc2s1)N(O)C(N)=O (stereo not drawn) [Zileuton, zileuton, reference compound] | 28% | 42 | effect on the number of pulmonary adenomas ([2]; oral, average 245 mg/kg in the diet): did not have any apparent effect; preventing lung tumors and slowing growth and progression of adenoma to carcinoma [4]: effective; tumor growth [5]: inhibits tumor growth |
| CCCCCN(O)C(=O)Nc1ccc(OCCCC)cc1 [Compound 2, 3-(4-butoxyphenyl)-1-hydroxy-1-pentylurea] |  |  | Adenoma counts, groups 1H and 2H compared [2]: similar |
| CCCCCN(O)C(=O)Nc1cc(OC)c(OC)c(OC)c1 [Compound 4, 1-hydroxy-1-pentyl-3-(3,4,5-trimethoxyphenyl)urea] | 24% | 84 |  |
| CCC(CC)N(O)C(=O)Nc1ccc(Cc2ccc(NC(=O)N(O)C(CC)CC)cc2)cc1 [Compound 5] |  | 66 | Sustained Inhibition, 10 μM Initial [3]: 86 |

Continued, in another order:

| inhibition at 10 µM [3] | SMILES | Inhibition, 20 μg in situ [1] | other results |
| --- | --- | --- | --- |
| 0% | CSc1ccc(NC(=O)N(C)O)cc1 [Compound 9, 1-hydroxy-1-methyl-3-[4-(methylthio)phenyl]urea] |  |  |
| 100% | CCCCCN(O)C(=O)Nc1ccc(Oc2ccccc2)cc1 [Compound 6, 1-hydroxy-3-(4-phenoxyphenyl)-1-pentylurea] | 88 |  |
| 12% | CCC(CC)N(O)C(=O)Nc1ccccc1 [Compound 8, 1-hydroxy-1-(1-ethylpropyl)-3-phenylurea] | 72 |  |
| 18% | CSc1ccc(NC(=O)N(O)C(C)C)cc1 [Compound 7, 1-hydroxy-1-(1-methylethyl)-3-[4-(methylthio)phenyl]urea] |  |  |
| 100% | CCC(CC)N(O)C(=O)Nc1cccc(Oc2ccccc2)c1 [Compound 1, 1-hydroxy-1-(1-ethylpropyl)-3-(3-phenoxyphenyl)urea] | 100 | Adenoma counts, groups 1H and 2H compared [2]: similar |
| 3% | O=C(Nc1ccccc1)N(O)CCCn1cccc1 [Compound 3, 1-hydroxy-1-(3-pyrrol-1-ylpropyl)-3-phenylurea] | 84 |  |
